Experimental data as given in patent US8722849B2, “Polypeptides” (Novo Nordisk A/S, priority 2011, dated 2014).
In brackets after ≈: the same amount, converted by molar mass. Read-outs that look alike come from different tables or passages of the source. Starred links: 1 amine or outer side, 2 acyl side, 3 side chain; linkers in the order of their positions; H or OH if unused. Positions of bridges follow the written chain, without caps; N, C: chain ends. Residues, ends and D or L forms follow the SMILES beside them. *: point of attachment. C20 diacid = O=C(O)CCCCCCCCCCCCCCCCCCC(=O)*; γGlu = O=C(O)[C@H](CCC(=O)[*:2])N[*:1]; AEEA = NCCOCCOCC(=O)O

How the values were obtained:
[1] = molecular target: T1, human calcitonin receptor (Homo sapiens, UniProt P30988); test: Assay (II)a functional CRE-luciferase assay, human calcitonin receptor; assay type: cell-based
T1 construct: expressed in transfected cells; host or cells: BHK570
T1 sequence (P30988 25-474): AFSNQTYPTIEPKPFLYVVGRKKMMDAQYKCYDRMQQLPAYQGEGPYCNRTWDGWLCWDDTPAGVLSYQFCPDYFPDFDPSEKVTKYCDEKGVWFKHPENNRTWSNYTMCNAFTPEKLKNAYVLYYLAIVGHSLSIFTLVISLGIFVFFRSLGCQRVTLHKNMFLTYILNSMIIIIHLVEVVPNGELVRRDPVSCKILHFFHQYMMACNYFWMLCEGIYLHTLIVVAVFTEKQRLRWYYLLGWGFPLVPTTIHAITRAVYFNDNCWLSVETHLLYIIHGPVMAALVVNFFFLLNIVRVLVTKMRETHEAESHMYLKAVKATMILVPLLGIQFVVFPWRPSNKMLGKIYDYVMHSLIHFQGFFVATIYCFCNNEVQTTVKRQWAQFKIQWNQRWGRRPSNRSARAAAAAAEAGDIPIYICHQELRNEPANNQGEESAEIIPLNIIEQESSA

[2] = molecular target: T2, human amylin receptor (amylin 3(a) receptor: human calcitonin receptor + RAMP-3) (Homo sapiens, UniProt O60896+P30988); test: Assay (II)a functional CRE-luciferase assay, human amylin receptor; assay type: cell-based
T2 construct: expressed in transfected cells; host or cells: BHK570
T2 sequence (P30988 25-474): T1 sequence (P30988 25-474)
T2 sequence (O60896 24-148 partner): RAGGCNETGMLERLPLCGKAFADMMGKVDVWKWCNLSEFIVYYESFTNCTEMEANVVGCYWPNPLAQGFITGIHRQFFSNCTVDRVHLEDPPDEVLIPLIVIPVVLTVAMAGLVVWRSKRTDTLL

[3] = Assay (IV) determination of solubility; assay type: physicochemical
In short: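 Polypeptide in water (~500 nmol/ml) mixed 1:1 with 100 mM glycylglycine (pH 3.0–5.0) or bistrispropane (pH 6.0–8.0) buffers. Held 18 hours at room temperature, then centrifuged. Polypeptide remaining in solution quantified by HPLC.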

[4] = Table 7, human calcitonin (CTa) receptor
[5] = Table 2, BHK amylin 3(a)-receptor/CRE-luc cells
[6] = bistrispropane buffer, pH 6, pH 6.0, read-out: Solubility pH 6.0
[7] = bistrispropane buffer, pH 6.5, pH 6.5, read-out: Solubility pH 6.5
[8] = bistrispropane buffer, pH 7, pH 7.0, 18 hours at room temperature, Table 3, read-out: Solubility pH 7.0
[9] = bistrispropane buffer, pH 7, pH 7.0, read-out: Solubility pH 7.0
[10] = bistrispropane buffer, pH 7.5, pH 7.5, read-out: Solubility pH 7.5
[11] = bistrispropane buffer, pH 8, pH 8.0, read-out: Solubility pH 8.0
[12] = glycylglycine buffer, pH 3, pH 3.0, read-out: Solubility pH 3.0
[13] = glycylglycine buffer, pH 4, pH 4.0, 18 hours at room temperature, Table 2, read-out: Solubility pH 4.0
[14] = glycylglycine buffer, pH 4, pH 4.0, read-out: Solubility pH 4.0
[15] = glycylglycine buffer, pH 5, pH 5.0, read-out: Solubility pH 5.0
[16] = Table 11, read-out: CTa receptor human EC50
[17] = Table 3, BHK amylin 3(a)-receptor/CRE-luc cells
[18] = pH 3, pH 3.0, read-out: Solubility pH 3.0
[19] = pH 4, pH 4.0, 18 hours at room temperature, Table 2, read-out: Solubility pH 4.0
[20] = pH 4, pH 4.0, read-out: Solubility pH 4.0
[21] = pH 5, pH 5.0, read-out: Solubility pH 5.0
[22] = pH 6, pH 6.0, read-out: Solubility pH 6.0
[23] = pH 6.5, pH 6.5, read-out: Solubility pH 6.5
[24] = pH 7, pH 7.0, 18 hours at room temperature, Table 3, read-out: Solubility pH 7.0
[25] = pH 7, pH 7.0, read-out: Solubility pH 7.0
[26] = pH 7.5, pH 7.5, read-out: Solubility pH 7.5
[27] = pH 8, pH 8.0, read-out: Solubility pH 8.0

Row | SMILES | EC50 [1, 4] | EC50 [2, 5] | solubility at 18 h [3, 6] | solubility at 18 h [3, 7] | solubility at 18 h [3, 8] | solubility at 18 h [3, 9] | solubility at 18 h [3, 10] | solubility at 18 h [3, 11] | solubility at 18 h [3, 12] | solubility at 18 h [3, 13] | solubility at 18 h [3, 14] | solubility at 18 h [3, 15] | EC50 [1, 16] | EC50 [2, 17] | EC50 ([2]; Table 4) | EC50 ([2]; Table 6, human amylin receptor) | EC50 ([2]; Table 7, human amylin receptor) | EC50 ([2]; Table 11) | solubility [3, 18] | solubility [3, 19] | also measured
1 | CC[C@H](C)[C@H](NC(=O)[C@@H]1CCCN1C(=O)CNC(=O)[C@H](Cc1ccccc1)NC(=O)[C@H](CC(N)=O)NC(=O)[C@H](CCC(N)=O)NC(=O)[C@H](CO)NC(=O)[C@H](CO)NC(=O)[C@H](Cc1c[nH]cn1)NC(=O)[C@H](CCCNC(=N)N)NC(=O)[C@H](CC(C)C)NC(=O)[C@H](Cc1ccccc1)NC(=O)[C@H](CCC(=O)O)NC(=O)[C@H](C)NC(=O)[C@H](CC(C)C)NC(=O)[C@H](CCCNC(=N)N)NC(=O)[C@H](CCC(N)=O)NC(=O)[C@@H](NC(=O)[C@H](C)NC(=O)[C@@H]1CSSC[C@H](NC(=O)[C@H](CCCNC(=N)N)NC(=O)[C@H](CCC(=O)O)NC(=O)[C@H](CCC(=O)O)NC(=O)CC[C@H](NC(=O)CCCCCCCCCCCCCCCCCCC(=O)O)C(=O)O)C(=O)N[C@@H](CC(N)=O)C(=O)N[C@@H]([C@@H](C)O)C(=O)N[C@@H](C)C(=O)N[C@@H]([C@@H](C)O)C(=O)N1)[C@@H](C)O)C(=O)N[C@@H](CC(C)C)C(=O)N1CCC[C@H]1C(=O)N1CCC[C@H]1C(=O)N[C@H](C(=O)N[C@@H](CC(N)=O)C(=O)N[C@H](C(=O)NCC(=O)N[C@@H](CO)C(=O)N[C@@H](CCC(N)=O)C(=O)N[C@H](C(=O)N1CCC[C@H]1C(N)=O)[C@@H](C)O)C(C)C)[C@@H](C)O [Example 158, N-alpha-[(S)-4-Carboxy-4-(19-carboxynonadecanoylamino)butyryl]-Glu-Glu-[Arg1,Glu14,Arg17,Gln21,Gln35,Pro37]-pramlintide] ({C20 diacid-γGlu}-EERCNTATCATQRLAEFLRHSSQNFGPILPPTNVGSQTP-NH2; disulfide 4-9 (inferred)) | 1.19 nM | 1.13 nM | > 200 µM | > 200 µM | > 200 µM | > 200 µM | > 200 µM | > 200 µM | > 200 µM | > 200 µM | > 200 µM | > 200 µM | – | – | – | – | – | – | – | – | –
2 | CC[C@H](C)[C@H](NC(=O)[C@@H]1CCCN1C(=O)CNC(=O)[C@H](Cc1ccccc1)NC(=O)[C@H](CC(N)=O)NC(=O)[C@H](CC(N)=O)NC(=O)[C@H](CO)NC(=O)[C@H](CO)NC(=O)[C@H](Cc1cnc[nH]1)NC(=O)[C@H](Cc1cnc[nH]1)NC(=O)[C@H](CC(C)C)NC(=O)[C@H](Cc1ccccc1)NC(=O)[C@H](CCC(=O)O)NC(=O)[C@H](C)NC(=O)[C@H](CC(C)C)NC(=O)[C@H](CCCNC(=N)N)NC(=O)[C@H](CCC(N)=O)NC(=O)[C@@H](NC(=O)[C@H](C)NC(=O)[C@@H]1CSSC[C@H](NC(=O)[C@H](CCC(=O)O)NC(=O)CC[C@H](NC(=O)CCCCCCCCCCCCCCCCCCC(=O)O)C(=O)O)C(=O)N[C@@H](CC(N)=O)C(=O)N[C@@H]([C@@H](C)O)C(=O)N[C@@H](C)C(=O)N[C@@H]([C@@H](C)O)C(=O)N1)[C@@H](C)O)C(=O)N[C@@H](CC(C)C)C(=O)N1CCC[C@H]1C(=O)N1CCC[C@H]1C(=O)N[C@H](C(=O)N[C@@H](CC(N)=O)C(=O)N[C@H](C(=O)NCC(=O)N[C@@H](CO)C(=O)N[C@@H](CC(N)=O)C(=O)N[C@H](C(=O)N[C@@H](Cc1ccc(O)cc1)C(N)=O)[C@@H](C)O)C(C)C)[C@@H](C)O [Example 29, N-alpha-[(S)-4-Carboxy-4-(19-carboxynonadecanoylamino)butyryl]-[Glu1,Glu14,His17]-pramlintide] ({C20 diacid-γGlu}-ECNTATCATQRLAEFLHHSSNNFGPILPPTNVGSNTY-NH2; disulfide 2-7) | 0.657 nM | 0.377 nM | > 200 µM | > 200 µM | > 200 µM | > 200 µM | > 200 µM | > 200 µM | > 200 µM | > 200 µM | > 200 µM | 107 µM (≈ 477 µg/mL) | – | – | – | – | – | – | – | – | –
3 | CC[C@H](C)[C@H](NC(=O)[C@@H]1CCCN1C(=O)CNC(=O)[C@H](Cc1ccccc1)NC(=O)[C@H](CC(N)=O)NC(=O)[C@H](CCC(=O)O)NC(=O)[C@H](CO)NC(=O)[C@H](CO)NC(=O)[C@H](Cc1c[nH]cn1)NC(=O)[C@H](Cc1c[nH]cn1)NC(=O)[C@H](CC(C)C)NC(=O)[C@H](Cc1ccccc1)NC(=O)[C@H](CCC(=O)O)NC(=O)[C@H](C)NC(=O)[C@H](CC(C)C)NC(=O)[C@H](CCCNC(=N)N)NC(=O)[C@H](CCC(N)=O)NC(=O)[C@@H](NC(=O)[C@H](C)NC(=O)[C@@H]1CSSC[C@H](NC(=O)[C@H](CCCCN)NC(=O)COCCOCCNC(=O)COCCOCCNC(=O)CC[C@H](NC(=O)CCCCCCCCCCCCCCCCCCC(=O)O)C(=O)O)C(=O)N[C@@H](CC(N)=O)C(=O)N[C@@H]([C@@H](C)O)C(=O)N[C@@H](C)C(=O)N[C@@H]([C@@H](C)O)C(=O)N1)[C@@H](C)O)C(=O)N[C@@H](CC(C)C)C(=O)N1CCC[C@H]1C(=O)N1CCC[C@H]1C(=O)N[C@H](C(=O)N[C@@H](CC(N)=O)C(=O)N[C@H](C(=O)NCC(=O)N[C@@H](CO)C(=O)N[C@@H](CC(N)=O)C(=O)N[C@H](C(=O)N1CCC[C@H]1C(N)=O)[C@@H](C)O)C(C)C)[C@@H](C)O [Example 167] ({C20 diacid-γGlu-AEEA-AEEA}-KCNTATCATQRLAEFLHHSSENFGPILPPTNVGSNTP-NH2; disulfide 2-7) | 0.113 nM | 0.203 nM | – | – | – | – | – | – | – | – | – | – | 0.113 nM | 0.203 nM | 0.203 nM | 0.203 nM | 0.203 nM | 0.203 nM | > 200 µM | > 200 µM | solubility [3, 20]: > 200 µM; solubility [3, 21]: > 200 µM; solubility [3, 22]: > 200 µM; solubility [3, 23]: > 200 µM; solubility [3, 24]: > 200 µM; solubility [3, 25]: > 200 µM; solubility [3, 26]: > 200 µM; solubility [3, 27]: > 200 µM
4 | CC[C@H](C)[C@H](NC(=O)[C@@H]1CCCN1C(=O)CNC(=O)[C@H](Cc1ccccc1)NC(=O)[C@H](CC(N)=O)NC(=O)[C@H](CC(N)=O)NC(=O)[C@H](CO)NC(=O)[C@H](CO)NC(=O)[C@H](Cc1c[nH]cn1)NC(=O)[C@H](Cc1c[nH]cn1)NC(=O)[C@H](CC(C)C)NC(=O)[C@H](Cc1ccccc1)NC(=O)[C@H](CCC(=O)O)NC(=O)[C@H](C)NC(=O)[C@H](CC(C)C)NC(=O)[C@H](CCCNC(=N)N)NC(=O)[C@H](CCC(N)=O)NC(=O)[C@@H](NC(=O)[C@H](C)NC(=O)[C@@H]1CSSC[C@H](NC(=O)COCCOCCNC(=O)COCCOCCNC(=O)CC[C@H](NC(=O)CCCCCCCCCCCCCCCCCCC(=O)O)C(=O)O)C(=O)N[C@@H](CC(N)=O)C(=O)N[C@@H]([C@@H](C)O)C(=O)N[C@@H](C)C(=O)N[C@@H]([C@@H](C)O)C(=O)N1)[C@@H](C)O)C(=O)N[C@@H](CC(C)C)C(=O)N1CCC[C@H]1C(=O)N1CCC[C@H]1C(=O)N[C@H](C(=O)N[C@@H](CC(N)=O)C(=O)N[C@H](C(=O)NCC(=O)N[C@@H](CO)C(=O)N[C@@H](CC(N)=O)C(=O)N[C@H](C(=O)N[C@@H](Cc1ccc(O)cc1)C(N)=O)[C@@H](C)O)C(C)C)[C@@H](C)O [Example 43, N-alpha-[2-(2-{2-[2-(2-{2-[(S)-4-Carboxy-4-(19-carboxyheptadecanoylamino)butyrylamino]ethoxy}ethoxy)acetylamino]ethoxy}ethoxy)acetyl]-[des1,Glu14,His17]-pramlintide] ({C20 diacid-γGlu-AEEA-AEEA}-CNTATCATQRLAEFLHHSSNNFGPILPPTNVGSNTY-NH2; disulfide 1-6) | 0.672 nM | 0.334 nM | – | – | – | – | – | – | – | – | – | – | 0.672 nM | 0.334 nM | 0.334 nM | 0.334 nM | 0.334 nM | 0.334 nM | > 200 µM | > 200 µM | solubility [3, 20]: > 200 µM; solubility [3, 21]: 194 µM (≈ 896 µg/mL); solubility [3, 22]: 176 µM (≈ 813 µg/mL); solubility [3, 23]: 195 µM (≈ 901 µg/mL); solubility [3, 24]: > 200 µM; solubility [3, 25]: > 200 µM; solubility [3, 26]: > 200 µM; solubility [3, 27]: > 200 µM
